The experiment deals with Galectin-7 (Homo sapiens, UniProt P47929). As to the kind of experiment: Binding affinity to human Galectin-7 assessed as dissociation constant by competitive fluorescence polarization assay. A general note: In fluorescence polarisation assays a small probe gives low polarisation when free and higher when bound to something large.

Molecules are shown by their SMILES.

Galectin-7, sequence (P47929 whole entry): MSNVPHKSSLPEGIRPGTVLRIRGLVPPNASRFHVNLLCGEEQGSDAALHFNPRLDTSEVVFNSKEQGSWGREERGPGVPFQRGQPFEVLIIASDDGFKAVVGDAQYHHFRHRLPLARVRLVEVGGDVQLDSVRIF

For `CO[C@H]1O[C@H](CO)[C@H](O)[C@H](n2cc(-c3ccccc3NS(=O)(=O)c3cc(C(F)(F)F)cc(C(F)(F)F)c3)nn2)[C@H]1O`, the Kd (commonly the equilibrium constant for the complex coming apart) was greater than 1000 µM.

Consider `O=S(=O)(Nc1ccccc1-c1cn([C@@H]2[C@@H](O)[C@@H](Sc3ccc(Cl)c(Cl)c3)O[C@H](CO)[C@@H]2O)nn1)c1cc(C(F)(F)F)cc(C(F)(F)F)c1`, for which the Kd was greater than 600 µM.

Values taken from ChEMBL document CHEMBL6096646, “Sulfonamide-derivatized galactosides selectively target an unexplored binding site in the galectin-9N-terminal domain” (Bioorg Med Chem, 2024).
